# Assay results as given in patent US12122761B2, “2-azaspiro[3.4]octane derivatives as M4 agonists” (NOVARTIS AG, priority 2019, dated 2024).
# Key:
# Format in all cases: cell-based
# [1] = target: T1, human cloned CHRM2 receptor (M2_CHO cells) (Homo sapiens, UniProt P08172); experiment: CHRM2 Ca++ Flux Assay (agonist mode, FDSS 7000EX)
# T1 construct: expressed in transfected cells; host or cells: CHO-K1
# T1 sequence (P08172 1-466): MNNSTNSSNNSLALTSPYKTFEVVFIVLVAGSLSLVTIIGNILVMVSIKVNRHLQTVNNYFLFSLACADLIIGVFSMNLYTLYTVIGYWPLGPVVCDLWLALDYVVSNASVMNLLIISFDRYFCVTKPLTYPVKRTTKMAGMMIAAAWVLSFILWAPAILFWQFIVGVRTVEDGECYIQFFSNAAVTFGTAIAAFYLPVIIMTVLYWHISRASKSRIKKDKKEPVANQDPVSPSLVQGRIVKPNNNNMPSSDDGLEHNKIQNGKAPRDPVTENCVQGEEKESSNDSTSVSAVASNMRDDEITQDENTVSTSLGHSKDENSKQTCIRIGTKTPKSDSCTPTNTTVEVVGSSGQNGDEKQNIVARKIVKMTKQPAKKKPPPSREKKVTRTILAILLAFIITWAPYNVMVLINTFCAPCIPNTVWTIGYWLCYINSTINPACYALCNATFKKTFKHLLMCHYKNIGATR
# Method: The above examples were characterized by measuring the intracellular mobilization of Ca++ ions caused by signaling events mediated by the receptor. The Intra-cellular Calcium flux levels were captured by the highly sensitive Ca++ indicator, Calcium Assay Kit (BD Biosciences, Catalog Number 640178). The fluorescent activity from all receptors were monitored by the fluorescent imager, FDSS 7000EX (Hamamatsu) over a span of 3 minutes.
# CHO-K1 cells stably expressing the human cloned CHRM2 receptor (M2_CHO cells) were grown and maintained in a monolayer culture with F12/HAM (Life Technologies) supplemented with 10% Fetal Bovine Serum, 1× Pen-Strep, and 0.4 mg/mL Geneticin in a humidified atmosphere (5% CO2) at 37° C. The cultures were grown to 80-9 0% confluency in T150 flasks (Corning) and washed with 1×DPBS and lifted with 0.05% Trypsin (Life Technologies). The cells were then spun (1K rpm, 3 minutes) and frozen using Recovery Cell Culture Freezing Media (Gibco Technologies). Cells were stored in liquid nitrogen and thawed a day before the assay.
# Prior to the day of the assay, stable M2 CHO cells were thawed and plated on Greiner 384 well TC treated plate at a density of 12K cells/well and kept overnight in a humidified atmosphere (5% CO2) at 37° C. The following day, the cells were loaded with Ca^++ dye (BD Biosciences) using Loading Buffer (HBSS +Ca/+Mg, 20 mM HEPES, 2.5 mM Probenecid) and placed back in cell incubator for a minimum of 1 hour and maximum of 2 hours. After incubation, the dye was replaced with Assay Buffer (HBSS −Ca/−Mg, 20 mM HEPES, 2.5 mM Probenecid) supplemented with 20 μM ATP (Sigma Aldrich) and kept at room temperature for 60 minutes prior before running on cell imager. The FDSS 7000EX (Hamamatsu) was used to acquire Ca^++ traces from cells in response to compound treatment and the data was used to generate dose response curves in agonist mode. All compounds were serially diluted in DMSO then prepared in Assay Buffer for Ca^++ flux studies. The dose response curves were generated from the average of triplicate wells obtained from each data point and used a non-linear regression of four parameter dose response algorithm. The Percent Activity (PA) was measured to EC100 of Carbachol.
# [2] = target: T2, human cloned CHRM3 receptor (M3_CHO cells) (Homo sapiens, UniProt P20309); experiment: CHRM3 Ca++ Flux Assay (agonist mode, FDSS 7000EX); conditions: for EC50: agonist mode, geometric mean if tested more than once, read-out: M3 FDSS EC50
# T2 construct: expressed in transfected cells; host or cells: CHO-K1
# T2 sequence (P20309 whole entry): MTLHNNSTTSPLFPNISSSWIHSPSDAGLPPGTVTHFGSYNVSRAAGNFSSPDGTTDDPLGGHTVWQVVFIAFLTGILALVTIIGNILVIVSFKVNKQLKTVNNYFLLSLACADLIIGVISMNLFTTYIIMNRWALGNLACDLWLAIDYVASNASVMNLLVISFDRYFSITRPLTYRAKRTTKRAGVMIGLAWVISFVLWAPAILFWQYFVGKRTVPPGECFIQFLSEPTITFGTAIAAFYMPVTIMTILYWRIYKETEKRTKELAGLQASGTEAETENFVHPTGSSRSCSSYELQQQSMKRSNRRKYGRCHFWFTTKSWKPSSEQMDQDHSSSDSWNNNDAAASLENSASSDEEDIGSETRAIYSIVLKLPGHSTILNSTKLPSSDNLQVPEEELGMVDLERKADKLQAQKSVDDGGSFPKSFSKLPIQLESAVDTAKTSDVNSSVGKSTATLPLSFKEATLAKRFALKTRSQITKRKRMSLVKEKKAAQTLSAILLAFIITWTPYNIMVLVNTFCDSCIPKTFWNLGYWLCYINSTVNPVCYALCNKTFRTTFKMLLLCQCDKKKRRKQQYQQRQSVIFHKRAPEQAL
# Outline: (§1)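 Fluorescent intracellular Ca++ signal, recorded for 3 min, served as read-out for CHO-K1 cells stably carrying human M3 or M5 receptor. Triplicate 11-point dose responses were averaged and fitted to a four-parameter model, with percent activity referenced to the carbachol EC100.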
# [3] = target: T3, human cloned CHRM5 receptor (M5_CHO) (Homo sapiens, UniProt P08912); experiment: CHRM5 Ca++ Flux Assay (agonist mode, FDSS 7000EX); conditions: for EC50: agonist mode, geometric mean if tested more than once, read-out: M5 FDSS EC50
# T3 construct: expressed in transfected cells; host or cells: CHO (M5_CHO)
# T3 sequence (P08912 1-532): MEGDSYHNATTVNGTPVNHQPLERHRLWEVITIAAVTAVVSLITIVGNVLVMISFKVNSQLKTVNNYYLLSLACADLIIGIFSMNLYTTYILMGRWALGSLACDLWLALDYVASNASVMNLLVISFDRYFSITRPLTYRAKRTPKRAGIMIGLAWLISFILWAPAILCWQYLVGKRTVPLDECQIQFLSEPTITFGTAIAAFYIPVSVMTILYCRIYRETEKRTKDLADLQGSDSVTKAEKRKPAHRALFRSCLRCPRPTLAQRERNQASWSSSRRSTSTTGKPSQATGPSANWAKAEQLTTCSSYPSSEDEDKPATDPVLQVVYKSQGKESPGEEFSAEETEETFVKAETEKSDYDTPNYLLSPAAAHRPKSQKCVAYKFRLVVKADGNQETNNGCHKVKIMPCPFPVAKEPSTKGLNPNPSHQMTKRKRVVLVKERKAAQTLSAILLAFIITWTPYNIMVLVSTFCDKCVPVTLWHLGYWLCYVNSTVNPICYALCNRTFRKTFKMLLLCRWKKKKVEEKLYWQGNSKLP
# Outline: as §1
# [4] = Percent Activity measured to EC100 of Carbachol
SMILES,"M2 FDSS PA [1, 4]","M3 FDSS PA [2, 4]",EC50 [2],"M5 FDSS PA [3, 4]",EC50 [3],"Emax ([1]; Percent Activity measured to EC100 of Carbachol, read-out: M2 FDSS PA)","Emax ([2]; Percent Activity measured to EC100 of Carbachol, read-out: M3 FDSS PA)","Emax ([3]; Percent Activity measured to EC100 of Carbachol, read-out: M5 FDSS PA)","EC50 ([1]; agonist mode, geometric mean if tested more than once, read-out: M2 FDSS EC50)"
"COc1ccc(Cl)cc1C1CCN([C@H]2CCC3(C2)CN(C(=O)C2(F)CC2)C3)CC1 (single isomer, unassigned) [Example 8B, (S)-(6-(4-(5-chloro-2-methoxyphenyl)piperidin-1-yl)-2-azaspiro[3.4]octan-2-yl)(1-fluorocyclopropyl)methanone or (R)-(6-(4-(5-chloro-2-methoxyphenyl)piperidin-1-yl)-2-azaspiro[3.4]octan-2-yl)(1-fluorocyclopropyl)methanone]",0%,0%,> 25 µM,0%,> 25 µM,–,–,–,–
"COc1ccccc1C1CCN([C@@H]2CCC3(C2)CN(c2ccnnc2)C3)CC1 [Example 5S, (R)-6-(4-(2-methoxyphenyl)piperidin-1-yl)-2-(pyridazin-4-yl)-2-azaspiro[3.4]octane]",–,–,> 25 µM,–,> 25 µM,0%,0%,0%,–
"O=C(N1CC2(CC[C@@H](N3CCC(c4ccccc4OCC4CCOCC4)CC3)C2)C1)C1(F)CC1 (single isomer, unassigned) [Example 7Q, (R)-(1-fluorocyclopropyl)(6-(4-(2-((tetrahydro-2H-pyran-4-yl)methoxy)phenyl)piperidin-1-yl)-2-azaspiro[3.4]octan-2-yl)methanone or (S)-(1-fluorocyclopropyl)(6-(4-(2-((tetrahydro-2H-pyran-4-yl)methoxy)phenyl)piperidin-1-yl)-2-azaspiro[3.4]octan-2-yl)methanone]",0%,0%,> 25 µM,0%,> 25 µM,–,–,–,–
"O=C(N1CC2(CC[C@@H](N3CCC(c4ccccc4OC(F)(F)F)CC3)C2)C1)C1(F)CC1 (single isomer, unassigned) [Example 9A, (R)-(1-fluorocyclopropyl)(6-(4-(2-(trifluoromethoxy)phenyl)piperidin-1-yl)-2-azaspiro[3.4]octan-2-yl)methanone or (S)-(1-fluorocyclopropyl)(6-(4-(2-(trifluoromethoxy)phenyl)piperidin-1-yl)-2-azaspiro[3.4]octan-2-yl)methanone]",31%,0%,> 25 µM,0%,> 25 µM,–,–,–,11.8 µM
"O=C(N1CC2(CC[C@@H](N3CCC(c4cc(F)ccc4OC4CCOCC4)CC3)C2)C1)C1(F)CC1 (single isomer, unassigned) [Example 9C, (R)-(6-(4-(5-fluoro-2-((tetrahydro-2H-pyran-4-yl)oxy)phenyl)piperidin-1-yl)-2-azaspiro[3.4]octan-2-yl)(1-fluorocyclopropyl)methanone or (S)-(6-(4-(5-fluoro-2-((tetrahydro-2H-pyran-4-yl)oxy)phenyl)piperidin-1-yl)-2-azaspiro[3.4]octan-2-yl)(1-fluorocyclopropyl)methanone]",0%,0%,> 25 µM,0%,> 25 µM,–,–,–,–

# Continued, values first:
"M2 FDSS PA [1, 4]","M3 FDSS PA [2, 4]",EC50 [2],"M5 FDSS PA [3, 4]",EC50 [3],"Emax ([1]; Percent Activity measured to EC100 of Carbachol, read-out: M2 FDSS PA)","Emax ([2]; Percent Activity measured to EC100 of Carbachol, read-out: M3 FDSS PA)","Emax ([3]; Percent Activity measured to EC100 of Carbachol, read-out: M5 FDSS PA)","EC50 ([1]; agonist mode, geometric mean if tested more than once, read-out: M2 FDSS EC50)",SMILES
0%,0%,> 25 µM,0%,> 25 µM,–,–,–,–,"O=C(N1CC2(CC[C@@H](N3CCC(c4ccccc4OC4CCOCC4)CC3)C2)C1)C1(F)CC1 (single isomer, unassigned) [Example 9F, (R)-(1-fluorocyclopropyl)(6-(4-(2-((tetrahydro-2H-pyran-4-yl)oxy)phenyl)piperidin-1-yl)-2-azaspiro[3.4]octan-2-yl)methanone or (S)-(1-fluorocyclopropyl)(6-(4-(2-((tetrahydro-2H-pyran-4-yl)oxy)phenyl)piperidin-1-yl)-2-azaspiro[3.4]octan-2-yl)methanone]"
0%,0%,> 25 µM,0%,> 25 µM,–,–,–,–,"O=C(N1CC2(CC[C@@H](N3CCC(c4ccccc4C4(O)CCOCC4)CC3)C2)C1)C1(F)CC1 (single isomer, unassigned) [Example 9G, (R)-(1-fluorocyclopropyl)(6-(4-(2-(4-hydroxytetrahydro-2H-pyran-4-yl)phenyl)piperidin-1-yl)-2-azaspiro[3.4]octan-2-yl)methanone or (S)-(1-fluorocyclopropyl)(6-(4-(2-(4-hydroxytetrahydro-2H-pyran-4-yl)phenyl)piperidin-1-yl)-2-azaspiro[3.4]octan-2-yl)methanone]"
0%,0%,> 25 µM,0%,> 25 µM,–,–,–,–,"COc1ccccc1C1CCN([C@@H]2CCC3(C2)CN(c2ncns2)C3)CC1 (single isomer, unassigned) [Example 10R, (R)-5-(6-(4-(2-methoxyphenyl)piperidin-1-yl)-2-azaspiro[3.4]octan-2-yl)-1,2,4-thiadiazole or (S)-5-(6-(4-(2-methoxyphenyl)piperidin-1-yl)-2-azaspiro[3.4]octan-2-yl)-1,2,4-thiadiazole]"
0%,0%,> 25 µM,0%,> 25 µM,–,–,–,–,"O=C(N1CC2(CC[C@@H](N3CCC(c4ccccc4OC4CC5(COC5)C4)CC3)C2)C1)C1(F)CC1 (single isomer, unassigned) [Example 11D, (R)-(6-(4-(2-((2-oxaspiro[3.3]heptan-6-yl)oxy)phenyl)piperidin-1-yl)-2-azaspiro[3.4]octan-2-yl)(1-fluorocyclopropyl)methanone or (S)-(6-(4-(2-((2-oxaspiro[3.3]heptan-6-yl)oxy)phenyl)piperidin-1-yl)-2-azaspiro[3.4]octan-2-yl)(1-fluorocyclopropyl)methanone]"
42%,0%,> 25 µM,0%,> 25 µM,–,–,–,–,"Fc1cncc(N2CC3(CC[C@@H](N4CCC(c5cc(F)ccc5OC5CCOCC5)CC4)C3)C2)c1 (single isomer, unassigned) [Example 10A, (R)-6-(4-(5-fluoro-2-((tetrahydro-2H-pyran-4-yl)oxy)phenyl)piperidin-1-yl)-2-(5-fluoropyridin-3-yl)-2-azaspiro[3.4]octane or (S)-6-(4-(5-fluoro-2-((tetrahydro-2H-pyran-4-yl)oxy)phenyl)piperidin-1-yl)-2-(5-fluoropyridin-3-yl)-2-azaspiro[3.4]octane]"
